In US20150133341A1, “Intra-Operative Cancer Diagnosis Based on a Hyperpolarized Marker” (ALBEDA INNOVATIONS APS, priority 2012, published 2015):
Structures can show the parent of a compound that is named as a salt. Where two headings read alike, the source gives them in different places. Marks after values point to notes of the source that are not given here. Blank lines part the entries; values can stand above or below the compound they belong to.

How the values were obtained:
[1] = test system: isolated CE-1 enzyme from porcine liver; test: CE-1 activity on short chain esters, 1H NMR; assay type: biochemical; conditions: for k: 26 μmol substrate, conversion over 60 min; for faster converted than ethyl acetate: vs ethyl acetate
Text: To measure almost exclusively the contribution of carboxyl esterase activity from the CE-2 isoform, human breast cancer cells (MCF-7) were employed. These cells are known from literature to express CE-2 but not to express CE-1 (Byun et al, 2008, Cancer letters 266:238-48). A group of esters was investigated as substrates for CE-1, which contained different structural features. These consisted of esters of un-substituted acids (examples are ethyl acetate, ethyl butyrate, methyl butyrate), esters of acids substituted on C2 (examples are ethyl lactate and ethyl 2-acetoxy propanoate), esters of acids substituted on C3 (examples are ethyl 3-hydroxy butyrate and ethyl 3-acetoxy butanoate), esters of ring closed acids (example ethyl pyroglutamate), esters of di-acids (examples are diethyl succinate and dimethyl succinate), esters of tri-acids (example triethyl citrate), ethyl esters of beta-keto acids (example ethyl acetoacetate). Also esters with large alcohol groups and small acid groups were investigated. In this group, the acid part of the molecule was always acetate and different structural properties of the alcohol were investigated. These consisted of esters of un-substituted alcohols (examples ethyl acetate and butyl acetate), esters of branched chain alcohols (examples t-butyl acetate, ethyl 3-acetoxy butanoate and 2-acetoxy propionate), esters of aromatic alcohols (example benzyl acetate), esters of diols (example ethyleneglycol diacetate), esters of triols (example triacetin). […] Similarly, a group of esters which contained different structural features was investigated as substrates for CE-2. CE-2 substrates are described in the literature to consist of a small acid group and a larger alcohol group. All included esters were acetate esters (i.e. esters of acetic acid) in the interest of keeping the acid moiety the smallest possible. The acetate esters measured for CE-2 activity were therefore the same as those measured in the second group of possible substrates for CE-1.
The CE-1 experiments were performed with commercially available CE-1 from porcine liver. Individual samples of the substrates were all prepared the following way: 26 μmol was weighted in an eppendorf tube. 550 μl deuterated phosphate buffer (200 mM, pH 7.5) was added and the substrate was brought into solution by whirl mixing. The solution was transferred to a 5 mm NMR tube and inserted in the spectrometer at 37° C. A reference experiment was acquired on the substrate solution without enzyme after which 10 μl of an esterase stock solution (37 U/ml in deuterated phosphate buffer) was added in the top of the tube. The sample was mixed and returned to the spectrometer. A series of thermal 1D ^1H NMR experiments were recorded every 5 min for 60 min. The data were analysed with MNOVA software and measured as percentage conversion of substrate calculated to account for the amount of substrate converted over 60 min. The numbers are given in μmol/min.

[2] = biological target: T1, CE-2 in lysed human breast cancer cells (MCF-7) (Homo sapiens, UniProt O00748); test: CE-2 activity on acetate esters in lysed MCF-7 cells, 1H NMR; assay type: biochemical; conditions: for k: 5 million lysed MCF-7 cells, 37° C., 1 hour; for hydrolysis by CE-2, in words: lysed MCF-7 cells
T1 construct: endogenous in cells; host or cells: MCF-7 (sonicated lysate)
T1 sequence (O00748 27-559): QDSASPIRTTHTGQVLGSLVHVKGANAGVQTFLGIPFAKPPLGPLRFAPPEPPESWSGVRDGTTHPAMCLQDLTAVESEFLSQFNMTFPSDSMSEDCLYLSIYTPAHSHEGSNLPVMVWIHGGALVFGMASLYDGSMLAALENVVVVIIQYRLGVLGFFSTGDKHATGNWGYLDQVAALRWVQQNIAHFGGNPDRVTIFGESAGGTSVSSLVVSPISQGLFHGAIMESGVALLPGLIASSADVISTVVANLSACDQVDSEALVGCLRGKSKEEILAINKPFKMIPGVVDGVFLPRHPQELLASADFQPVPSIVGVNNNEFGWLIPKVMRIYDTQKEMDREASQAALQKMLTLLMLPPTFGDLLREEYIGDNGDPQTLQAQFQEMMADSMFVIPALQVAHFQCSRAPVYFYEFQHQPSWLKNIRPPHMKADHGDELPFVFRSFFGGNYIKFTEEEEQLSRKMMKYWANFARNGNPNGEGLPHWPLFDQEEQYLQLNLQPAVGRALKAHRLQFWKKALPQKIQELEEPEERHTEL
Method: Different classes of short chain esters, fulfilling the requirements for the hyperpolarization technique (stable, soluble, low molecular weight compounds (<400 Da), were evaluated as substrates for carboxyl esterases with the aim to identify esters as similar or better substrates for carboxyl esterases than 1,3-^13C2 ethyl acetoacetate. In most human cell types, including a wide range of cancer cells and lymphocytes, the activity of carboxyl esterase is dominated by the activities of isoforms 1 and 2 (CE-1 and CE-2). To measure exclusively the hydrolysis of carboxyl esterase from the CE-1 isoform, an isolated enzyme from porcine liver was applied. To measure almost exclusively the contribution of carboxyl esterase activity from the CE-2 isoform, human breast cancer cells (MCF-7) were employed. These cells are known from literature to express CE-2 but not to express CE-1 (Byun et al, 2008, Cancer letters 266:238-48). A group of esters was investigated as substrates for CE-1, which contained different structural features. […] Also esters with large alcohol groups and small acid groups were investigated. In this group, the acid part of the molecule was always acetate and different structural properties of the alcohol were investigated. These consisted of esters of un-substituted alcohols (examples ethyl acetate and butyl acetate), esters of branched chain alcohols (examples t-butyl acetate, ethyl 3-acetoxy butanoate and 2-acetoxy propionate), esters of aromatic alcohols (example benzyl acetate), esters of diols (example ethyleneglycol diacetate), esters of triols (example triacetin). Esters of alpha-keto acids were too unstable to be investigated in this assay. Esters of larger alcohols are not water soluble and therefore not relevant substrates for the purpose of the invention. Similarly, a group of esters which contained different structural features was investigated as substrates for CE-2. CE-2 substrates are described in the literature to consist of a small acid group and a larger alcohol group. All included esters were acetate esters (i.e. esters of acetic acid) in the interest of keeping the acid moiety the smallest possible. The acetate esters measured for CE-2 activity were therefore the same as those measured in the second group of possible substrates for CE-1. The CE-2 experiments were performed with lysed breast cancer cells (MCF-7). MCF-7 cells were grown in RPMI medium with 10% FBS and antibiotics. They were at confluence harvested by trypsination and washed once with 5 ml PBS. They were spun down and resuspended in PBS to a concentration of 20 mill. cells/ml. The cells were hereafter sonicated on ice (50% amplitude, 1 min, 3 sec pulse). 250 μl sonicated cell suspension was mixed with 250 μl 400 mM phosphate buffer pH 7.3. […] The substrate was added (50 μl, 60 mM) and the tube turned for mixing before it was inserted into the spectrometer. An initial spectrum was acquired and the sample was hereafter placed at 37° C. for 1 hour in a water bath. The sample was again inserted into the magnet and a second spectrum was recorded. The data was analysed with MNOVA software and measured as percentage conversion of substrate calculated to account for the amount of substrate converted over 60 min. The numbers are given in μmol/hour.

[3] = test system: carboxyl esterase in lysed lymphocytes (B + T cells); test: Carboxyl esterase activity in cell extract, 1H NMR; assay type: biochemical, human; conditions: 5 million lysed cells, 37° C.
Method: (§1) The hydrolysis of the substrates was investigated in cell extracts. To test substrates without isotope labelling for carboxyl esterase activity in a cellular background, a ^1H NMR assay was applied. Human breast cancer cells (MCF-7) and human prostate cancer cells (PC-3) were grown in RPMI medium with 10% FBS and antibiotics. They were at confluence harvested by trypsination and washed once with 5 ml PBS. They were spun down and resuspended in PBS to a concentration of 20 mill. cells/ml. The cells were hereafter sonicated on ice (50% amplitude, 1 min, 3 sec pulse). Human lymphocytes were purified from whole blood. Whole blood samples were drawn from healthy volunteer into heparinised venous blood collection tubes (Venosafe vacumtubes from Terumo). For each experiment, the blood was purified freshly: Three and a half 10 mL tubes of blood were pooled in each of four 50 mL Leucosep (Greiner) tubes prepared with 15 mL Histopaque 1077 (Sigma). The Leucosep tubes were spun for 15 min at 800× g at 24 C. The plasma was removed and the white blood cells were transferred to a 50 mL falcon tube by decanting and diluted 1:2 in PBS-Mg—Ca for a total volume of 50 mL. The cells were sedimented by centrifugation at 250×g for 60 min. Diluting with trypan blue and counting in hemocytometer determined the total number of lymphocytes before sedimentation. All cells were viable and the total number of cells in each cell batch was approx. 60 million. The lymphocytes were redissolved to a concentration of 20 million cells/ml. The cells were hereafter sonicated on ice (50% amplitude, 1 min, 3 sec pulse).
(§2) 250 μl sonicated cell suspension was mixed with 250 μl 400 mM phosphate buffer pH 7.3. This solution was transferred to a 5 mm NMR tube and warmed on a water bath to 37° C. The substrate was added (50 μl, 60 mM) and the tube turned for mixing before it was inserted into the spectrometer. The data was analyzed with MNOVA software and measured as percentage conversion of substrate calculated to account for the amount of substrate converted over 60 min; numbers are given in μmol/hour.

[4] = test system: carboxyl esterase in lysed prostate cancer cells (PC-3); test: Carboxyl esterase activity in cell extract, 1H NMR; assay type: biochemical, human; conditions: for Metabolic conversion, Prostate cancer cells PC-3: 5 million lysed cells, 37° C.
Method: as §1, §2

[5] = test system: carboxyl esterase in lysed breast cancer cells (MCF-7); test: Carboxyl esterase activity in cell extract, 1H NMR; assay type: biochemical, human; conditions: for Metabolic conversion, Breast cancer cells MCF-7: 5 million lysed cells, 37° C.
Method: as §1, §2

- conversion by CE-1, in words [1]: only hydrolyzed to a very low extent
- k ([1]; 37° C.): 0.02 µmol/min
- conversion by CE-1, in words ([1]; listed as ethyl ester of pyroglutamate): barely detectable
Structure (SMILES): CCOC(=O)[C@@H]1CCC(=O)N1 [Ethyl pyroglutamate]

- conversion by CE-1, in words [1]: not a good substrate
- k ([1]; 37° C.): 0.03 µmol/min
- k [2]: 0 µmol/min
- hydrolysis by CE-2, in words [2]: not hydrolysed
Structure (SMILES): CCOC(C)=O [Ethylacetate]

- k ([1]; 37° C.): 0.12 µmol/min
Structure (SMILES): CCCC(=O)OCC [Ethylbutyrate]

- k ([1]; 37° C.): 0.07 µmol/min
- k [2]: 0.18 µmol/min
Structure (SMILES): CC(=O)OCCOC(C)=O [Ethyleneglycol diacetate]

- conversion by CE-1, in words [1]: only hydrolyzed to a very low extent
- k ([1]; 37° C.): 0 µmol/min
- conversion by CE-1, in words ([1]; listed as triethyl citrate): no hydrolysis could be detected
Structure (SMILES): CCOC(=O)CC(O)(CC(=O)OCC)C(=O)OCC [Triethyl citrate]

Further lines, the compound ahead of its results:

Structure (SMILES): CCCCOC(C)=O [Butyl acetate]
- k ([1]; 37° C.): 0.04 µmol/min
- k [2]: 0.24 µmol/min
- hydrolysis by CE-2, in words [2]: hydrolysed to a similar extent

Structure (SMILES): CCOC(=O)CCC(=O)OCC [Diethyl succinate]
- k ([1]; 37° C.): 0.48 µmol/min
- faster converted than ethyl acetate [1]: more than ten times faster converted
- Metabolic conversion, Lymphocytes (B + T cells) [3]: 0.60 µmol/h
- Metabolic conversion, Prostate cancer cells PC-3 [4]: 0.48 µmol/h
- Metabolic conversion, Breast cancer cells MCF-7 [5]: 0.12 µmol/h
- negative contrast, lower than that of EAA ([5]; breast cancer cells relative to lymphocytes, cell number basis): approx. 3 times

Structure (SMILES): COC(=O)CCC(=O)OC [Dimethyl succinate]
- k ([1]; 37° C.): 0.41 µmol/min
- faster converted than ethyl acetate [1]: more than ten times faster converted

Structure (SMILES): CCOC(=O)CC(C)O (stereo not shown) [Ethyl 3-Hydroxybutyrate]
- k ([1]; 37° C.): 0.08 µmol/min

Structure (SMILES): CCOC(=O)CC(C)=O [Ethyl acetoacetate]
- k ([1]; 37° C.): 0.12 µmol/min
- Metabolic conversion, Lymphocytes (B + T cells) [3]: 0.15 µmol/h
- Metabolic conversion, Prostate cancer cells PC-3 [4]: 0* umol/hour
- contrast in prostate cancer cells relative to lymphocytes, in words ([4]; cell number basis, FIG. 9B): highest negative contrast
- Metabolic conversion, Breast cancer cells MCF-7 [5]: 0* umol/hour
- contrast in breast cancer cells relative to lymphocytes, in words ([5]; cell number basis, FIG. 9A): highest contrast

Structure (SMILES): CCOC(=O)C(C)O (stereo not shown) [Ethyl lactate]
- k ([1]; 37° C.): 0.11 µmol/min

Structure (SMILES): CCCC(=O)OC [Methylbutyrate]
- k ([1]; 37° C.): 0.22 µmol/min
- Metabolic conversion, Lymphocytes (B + T cells) [3]: 0.90 µmol/h
- Metabolic conversion, Prostate cancer cells PC-3 [4]: 0.51 µmol/h
- Metabolic conversion, Breast cancer cells MCF-7 [5]: 0.42 µmol/h

Structure (SMILES): CC(=O)OC(C)(C)C [Tert-butyl acetate]
- k ([1]; 37° C.): 0 µmol/min

Structure (SMILES): CCOC(=O)C(C)OC(C)=O (stereo not shown) [ethyl 2-acetoxy propanoate]
- k (μmol/min), acetate ester ([1]; hydrolysis of the acetate ester function, 37° C., 60 min): 0 µmol/min
- k (μmol/min), ethyl ester ([1]; hydrolysis of the ethyl ester function, 37° C., 60 min): 0.16 µmol/min
- hydrolysis by CE-2, in words [2]: hydrolysed to a similar extent
